Data reported in publication PMC9693455, “Synthesis of Tetrasubstituted Phosphorus Analogs of Aspartic Acid as Antiproliferative Agents” (Molecules, 2022).

How the values were obtained:
[1] = test system: SKOV3 (human ovarian carcinoma) cells; assay: In vitro cytotoxicity (antiproliferative activity), CCK-8 assay, SKOV3; format: cell-based; conditions: for IC50: Homo sapiens, SK-OV-3, 48 h exposure, CCK-8
Experimental: (§1) In vitro cytotoxicity of the phosphorated aspartic acid derivatives was evaluated by testing their antiproliferative activities against several human cancer cell lines. Cell counting kit (CCK-8) assay was used for the evaluation of growth inhibition. […] In addition, trisubstituted aminophosphonate 9a (Imine precursor, R^1 = H, R^2 = P(O)(OMe)2) and tetrasubstituted aminophosphonate 18 (R^1 = Me, R^2 = P(O)(OMe)2) are used as templates in order to evaluate the effect of the substituents (Table 1).
(§2) Human epithelial lung carcinoma cells (A549) (ATCC® CCL-185™, ATCC, Manassas, VA, USA) were grown in Kaighn’s Modification of Ham’s F-12 Medium (ATCC® 30-2004™, ATCC, Manassas, VA, USA) and lung fibroblast cells (MRC5) (ATCC® CCL-171™, ATCC, Manassas, VA, USA) were grown in Eagle’s Minimum Essential Medium (EMEM, ATCC® 30-2003™, ATCC, Manassas, VA, USA). Epithelial ovary adenocarcinoma cells (SKOV3) (ATCC® HTB-77™, ATCC, Manassas, VA, USA) were grown in McCoy’s 5A medium (ATCC® 30-2007™, ATCC, Manassas, VA, USA). All of them were supplemented with 10% of fetal bovine serum (FBS) (Sigma-Aldrich, Madrid, Spain) and with 1% of NORMOCIN solution (Thermo Fisher, Waltham, MA, USA). Cells were incubated at 37 °C and 5% CO2 atmosphere, and were split every 3–4 days to maintain monolayer coverage. For the cytotoxicity experiments, the A549 and SKOV3 cells were seeded in 96-well plates at a density of 2.5–3 × 10^3 cells per well and incubated overnight to achieve 70% of confluence at the time of exposition to the cytotoxic compound.
(§3) Cells were exposed to different concentrations of the cytotoxic compounds and were incubated for 48 h. Then, 10 µL of cell counting kit-8 was added into each well for an additional two hours’ incubation at 37 °C. The absorbance of each well was determined by an Automatic Elisa Reader System (Thermo Scientific Multiskan FC Automatic Elisa Reader System, Thermo Scientific, Shanghai, China) at 450 nm wavelength.

[2] = test system: MRC5 lung fibroblast cells; assay: Selective toxicity, CCK-8 assay, non-malignant MRC5 lung fibroblasts; format: cell-based; conditions: for IC50: Homo sapiens, non-malignant MRC5 lung fibroblasts, 48 h exposure, CCK-8
Experimental: as §1, §2, §3

[3] = test system: A549 (carcinomic human alveolar basal epithelial) cells; assay: In vitro cytotoxicity (antiproliferative activity), CCK-8 assay, A549; format: cell-based; conditions: for IC50: 48 h exposure, CCK-8
Experimental: as §1, §2, §3

Row | SMILES | IC50 [1] | melting point | IC50 [2] | IC50 ([3]; Homo sapiens, A549, 48 h) | cytotoxicity against SKOV3 cell line (in words) [1] | toxicity toward MRC5 non-malignant cells (in words) [2] | IC50 [3] | IC50 ([3]; Homo sapiens) | cytotoxicity against A549 cell line (in words) [3]
1 | CCOC(=O)CC(NS(=O)(=O)c1ccc(C)cc1)(c1ccccc1)P(=O)(OC)OC (centres unmarked) [7a, Ethyl 3-(dimethoxyphosphoryl)-3-((4-methylphenyl)sulfonamido)-3-phenylpropanoate] | > 50 µM | 98 to 99 °C | > 50 µM | 2.66 ± 0.26 µM | – | – | – | – | –
2 | CCOC(=O)CC(NS(=O)(=O)c1ccc(C)cc1)(c1ccc(C)cc1)P(=O)(OC)OC (centres unmarked) [7b, Ethyl 3-(dimethoxyphosphoryl)-3-((4-methylphenyl)sulfonamido)-3-(p-tolyl)propanoate] | > 50 µM | 117 to 118 °C | 29.6 ± 2.98 µM | 0.34 ± 0.04 µM | no activity | some toxicity | – | – | –
3 | CCOC(=O)CC(NS(=O)(=O)c1ccc(C)cc1)(c1cccc(C)c1)P(=O)(OC)OC (centres unmarked) [7c, Ethyl 3-(dimethoxyphosphoryl)-3-((4-methylphenyl)sulfonamido)-3-(m-tolyl)propanoate] | > 50 µM | 103 to 104 °C | > 50 µM | 2 ± 0.52 µM | no activity | – | – | – | –
4 | CCOC(=O)CC(NS(=O)(=O)c1ccc(C)cc1)(c1ccc(SC(Cl)(Cl)Cl)cc1)P(=O)(OC)OC (centres unmarked) [7d, Ethyl 3-(dimethoxyphosphoryl)-3-((4-methylphenyl)sulfonamido)-3-(4-((trichloromethyl)thio)phenyl)propanoate] | 6.43 ± 0.64 µM | 123 to 124 °C | 2.47 ± 0.3 µM | 4.41 ± 0.29 µM | – | – | – | – | –
5 | CCOC(=O)CC(NS(=O)(=O)c1ccc(C)cc1)(c1ccc(Br)cc1)P(=O)(OC)OC (centres unmarked) [7e, Ethyl 3-(4-bromophenyl)-3-(dimethoxyphosphoryl)-3-((4-methylphenyl)sulfonamido)propanoate] | > 50 µM | 138 to 139 °C | > 50 µM | 1.08 ± 0.09 µM | – | – | – | – | –
6 | CCOC(=O)CC(NS(=O)(=O)c1ccc(C)cc1)(c1ccc(Cl)cc1)P(=O)(OC)OC (centres unmarked) [7f, Ethyl 3-(4-chlorophenyl)-3-(dimethoxyphosphoryl)-3-((4-methylphenyl)sulfonamido)propanoate] | 24.1 ± 1.45 µM | 133 to 134 °C | > 50 µM | 3.09 ± 0.14 µM | – | – | – | – | –
7 | CCOC(=O)CC(NS(=O)(=O)c1ccc(C)cc1)(c1cccc(Cl)c1)P(=O)(OC)OC (centres unmarked) [7g, Ethyl 3-(3-chlorophenyl)-3-(dimethoxyphosphoryl)-3-((4-methylphenyl)sulfonamido)propanoate] | > 50 µM | 88 to 89 °C | 38.1 ± 1.61 µM | 2.96 ± 0.34 µM | – | toxic against the healthy cells | – | – | –
8 | CCOC(=O)CC(NS(=O)(=O)c1ccc(C)cc1)(c1ccc(Cl)c(Cl)c1)P(=O)(OC)OC (centres unmarked) [7h, Ethyl 3-(3,4-dichlorophenyl)-3-(dimethoxyphosphoryl)-3-((4-methylphenyl)sulfonamido)propanoate] | 6.94 ± 0.63 µM | 109 to 110 °C | 11.3 ± 1.16 µM | 1.05 ± 0.42 µM | – | – | – | – | –
9 | CCOC(=O)CC(NS(=O)(=O)c1ccc(C)cc1)(c1ccc(OC)c(Cl)c1)P(=O)(OC)OC (centres unmarked) [7i, Ethyl 3-(3-chloro-4-methoxyphenyl)-3-(dimethoxyphosphoryl)-3-((4-methylphenyl)sulfonamido)propanoate] | > 50 µM | 153 to 154 °C | > 50 µM | 1.44 ± 0.15 µM | – | – | – | – | –
10 | CCOC(=O)CC(NS(=O)(=O)c1ccc(C)cc1)(c1ccc(F)cc1)P(=O)(OC)OC (centres unmarked) [7j, Ethyl 3-(dimethoxyphosphoryl)-3-(4-fluorophenyl)-3-((4-methylphenyl)sulfonamido)propanoate] | > 50 µM | 111 to 112 °C | > 50 µM | 7.15 ± 0.24 µM | – | – | – | – | –
11 | CCOC(=O)CC(NS(=O)(=O)c1ccc(C)cc1)(c1cccc(F)c1)P(=O)(OC)OC (centres unmarked) [7k, Ethyl 3-(dimethoxyphosphoryl)-3-(3-fluorophenyl)-3-((4-methylphenyl)sulfonamido)propanoate] | > 50 µM | 111 to 112 °C | > 50 µM | 0.34 µM | – | – | 0.59 ± 0.09 µM | – | –
12 | CCOC(=O)CC(NS(=O)(=O)c1ccc(C)cc1)(c1ccccc1F)P(=O)(OC)OC (centres unmarked) [7l, Ethyl 3-(dimethoxyphosphoryl)-3-(2-fluorophenyl)-3-((4-methylphenyl)sulfonamido)propanoate] | > 50 µM | 140 to 141 °C | > 50 µM | 0.9 ± 0.12 µM | – | – | – | – | –
13 | CCOC(=O)CC(NS(=O)(=O)c1ccc(C)cc1)(c1ccc(F)cc1F)P(=O)(OC)OC (centres unmarked) [7m, Ethyl 3-(2,4-difluorophenyl)-3-(dimethoxyphosphoryl)-3-((4-methylphenyl)sulfonamido)propanoate] | > 50 µM | 135 to 136 °C | > 50 µM | 2.24 ± 0.31 µM | – | – | – | – | –
14 | CCOC(=O)CC(NS(=O)(=O)c1ccc(C)cc1)(c1ccc(F)c(F)c1)P(=O)(OC)OC (centres unmarked) [7n, Ethyl 3-(3,4-difluorophenyl)-3-(dimethoxyphosphoryl)-3-((4-methylphenyl)sulfonamido)propanoate] | > 50 µM | 98 to 99 °C | > 50 µM | 5.7 ± 0.7 µM | – | – | – | – | –
15 | CCOC(=O)CC(NS(=O)(=O)c1ccc(C)cc1)(c1c(F)c(F)c(F)c(F)c1F)P(=O)(OC)OC (centres unmarked) [7o, Ethyl 3-(dimethoxyphosphoryl)-3-((4-methylphenyl)sulfonamido)-3-(perfluorophenyl)propanoate] | 20.5 ± 2.75 µM | – | > 50 µM | 3.65 ± 0.21 µM | – | – | – | – | –
16 | CCOC(=O)CC(NS(=O)(=O)c1ccc(C)cc1)(c1ccc(C(F)(F)F)cc1)P(=O)(OC)OC (centres unmarked) [7p, Ethyl 3-(dimethoxyphosphoryl)-3-((4-methylphenyl)sulfonamido)-3-(4-(trifluoromethyl)phenyl)propanoate] | 9.8 ± 0.6 µM | 114 to 115 °C | > 50 µM | 20.3 ± 1.14 µM | – | no toxicity | – | – | –
17 | COP(=O)(OC)C(NS(=O)(=O)c1ccc(C)cc1)c1ccccc1 (centres unmarked) [9a] | > 50 µM | – | > 50 µM | 17.6 ± 1.3 µM | – | – | – | – | –
18 | COP(=O)(OC)C(CC(=O)OCc1ccccc1)(NS(=O)(=O)c1ccc(C)cc1)c1cccc(F)c1 (centres unmarked) [13a, Benzyl 3-(dimethoxyphosphoryl)-3-(3-fluorophenyl)-3-((4-methylphenyl)sulfonamido)propanoate] | > 50 µM | 78 to 79 °C | – | 12.8 ± 2.38 µM | no toxicity | – | – | – | –
19 | CCOC(=O)C[C@](NS(=O)(=O)c1ccc(C)cc1)(c1cccc(F)c1)P(=O)(OC)OC [(R)-7k] | – | – | – | 1.61 ± 0.2 µM | – | – | – | – | –
20 | CCOC(=O)C[C@@](NS(=O)(=O)c1ccc(C)cc1)(c1cccc(F)c1)P(=O)(OC)OC [(S)-7k] | – | – | – | 1.56 ± 0.39 µM | – | – | – | – | –
21 | COc1cccc2c1C(=O)c1c(O)c3c(c(O)c1C2=O)C[C@@](O)(C(=O)CO)C[C@@H]3O[C@H]1C[C@H](N)[C@H](O)[C@H](C)O1 [Doxorubicin, reference compound] | – | – | – | – | – | – | – | < 0.1 µM | –
22 | CCOC(=O)CC(NS(=O)(=O)c1ccc(C)cc1)c1ccccc1 (centres unmarked) [compound 5, Ethyl 3-((4-methylphenyl)sulfonamido)-3-phenylpropanoate] | > 50 µM | – | > 50 µM | – | – | – | – | 18.7 ± 2.16 µM | –
23 | CCOC(=O)CC(NS(=O)(=O)c1ccc(C)cc1)(C(=O)OCC)c1ccccc1 (centres unmarked) [compound 6, Diethyl 2-((4-methylphenyl)sulfonamido)-2-phenylsuccinate] | > 50 µM | – | > 50 µM | – | – | – | – | 14.2 ± 0.41 µM | –
24 | COC(=O)CC(NS(=O)(=O)c1ccc(C)cc1)(c1cccc(F)c1)P(=O)(OC)OC (centres unmarked) [compound 12, Methyl 3-(dimethoxyphosphoryl)-3-(3-fluorophenyl)-3-((4-methylphenyl)sulfonamido)propanoate] | > 50 µM | 115 to 116 °C | – | 24.1 ± 4.01 µM | no toxicity | – | – | – | –
25 | COP(=O)(OC)C(CC(=O)O)(NS(=O)(=O)c1ccc(C)cc1)c1ccccc1 (centres unmarked) [compound 14, 3-(Dimethoxyphosphoryl)-3-((4-methylphenyl)sulfonamido)-3-phenylpropanoic acid] | > 50 µM | – | > 50 µM | 20.6 ± 1.05 µM | – | – | – | – | –
26 | COP(=O)(OC)C(C)(NS(=O)(=O)c1ccc(C)cc1)c1ccccc1 (centres unmarked) [compound 18, Dimethyl (1-((4-methylphenyl)sulfonamido)-1-phenylethyl)phosphonate] | > 50 µM | – | – | > 50 µM | – | – | – | – | no cytotoxicity
